According to patent US20240390434A1, “PROBIOTIC ENHANCERS AND USES THEREOF” (Blis Technologies Limited, priority 2021, published 2024):

Assays:
L. lactis T-21 = assay: Dose response deferred antagonism assay, producer K12; assay type: cell-based
Experimental: (§1) 1-2 producer strain colonies were transferred from a stock plate into 900 μL of suspension solution using a fresh cotton swab. Following this, suspensions were vortexed, and a sample was inoculated onto solid culture media using a fresh cotton swab. The inoculation was a streak that runs diametrically across the agar plate in a 1.5 cm wide strip. The plate was then incubated. Following incubation all visible colonies were removed by swabbing them from the agar surface. The plates were then treated with chloroform by dispensing 2 ml of chloroform onto 4 cm×4 cm piece of cloth and sealing the inverted agar plate on top for 30 minutes. The plates were then air dried for 30 minutes following chloroforming. 1-2 indicator strain colonies were then transferred from a stock plate into complementary suspension solution. The suspensions were then vortexed, and a sample was inoculated onto the same agar surface. These samples were streaked in a perpendicular direction to the initial producer streak.
(§2) Each indicator streak was prepared with fresh a suspension containing cells from a corresponding stock plate containing the indicator strain of interest. Indicator strains suspension samples were transferred using a fresh cotton swab. Results were measured by qualitatively reviewing the subsequent (if any) sizes of the zones of inhibition (ZOI) of indicator strain colony growth. A positive result is when there is a distinctive reduction or complete inhibition of indicator colony growth on the culture medium.
(§3) CABCa agar plates containing various concentrations of saccharide were prepared according to the methods described in Method 1. Producer strains were transferred from stock agar plates into 900 μL THB using a fresh cotton swab. A plastic spread plater was cut to approximately 1.2 cm width and then dipped into ethanol and left to air dry to ensure sterility. A 100 μL sample of the producer strain suspension was then dispensed onto the agar surface in a straight line running diametrically across the agar surface in (approximately) 20 μL spots. The spots were spaced approximately 1.5 cm apart from each other. The plastic spreader was then used to evenly distribute the spots across the agar surface in a 1.5 cm wide strip. This step was taken to ensure an even producer streak was inoculated onto the agar surface and provided an approximate measure of the initial inoculum concentration. Separate plastic spreaders were used for samples containing different producer strains. The samples were left to soak into the agar surface until there was no visible liquid remaining on the agar surface (approximately 20 minutes). Following producer streak preparations, the deferred antagonism assay protocol was followed as per Method 2. Results were recorded by measuring the size of the zone of inhibition (ZOI) in mm.
(§4) The results presented in FIG. 1 and FIG. 2 illustrate the change in ear, nose, and throat (ENT) microorganism indicator strain zone of inhibition sizes. When K12 was cultured in the presence of various concentrations of galactose the ZOI sizes for several of the ENTR indicator strains increased markedly from the control condition (FIG. 1). M. catarrhalis TW1 and TW2 display similar changes in the ZOI sizes across the various concentrations of galactose. The change in TW1 ZOI size peaks at 1.5% galactose(w/v) (12 mm) then decreases at 2.0% galactose (w/v), whereas the change of TW2 ZOI size peaks at 2.0% galactose (w/v) (11 mm). The change in L. lactis T-21 ZOI sizes trend upwards relative to the concentration of galactose present in the culture medium.

M. catarrhalis TW2 = assay: as above; assay type: cell-based; settings: peak
Experimental: as §1, §2, §3, §4

S. pyogenes M76 = assay: as above; assay type: cell-based
Experimental: as §1, §2, §3, §4

salA = assay: qPCR relative gene expression in K12 grown on CABCa agar; assay type: cell-based, S. salivarius K12
Experimental: (§5) Method: CABCa agar plates were prepared either with or without 2.5% w/w raffinose, 0.5% w/w galactose, combined 2.5% w/w raffinose and 0.5% w/w galactose, 0.5% w/w glucose or 2.5% w/w glucose by the addition of 0.5% (w/v) calcium carbonate to solid CAB agar in bottles and then melted by autoclaving at 110° C. for 10 mins. Once cooled, filter sterilised solutions of the saccharides or distilled water were added and mixed and then 20 ml pipetted into petri dishes.
(§6) A S. salivarius K12 raw ingredient suspension was prepared in PBS containing approx. 1×10^8cfu/ml. […] of this suspension was spread evenly onto control and test agar plates. Plates were incubated at 37° C. with 5% CO2 for approx, 19 hrs.
(§7) Bacterial growth from each plate was collected using a sterile cotton swab and resuspended into 1 ml PBS in a screw capped tube. The bacterial cells were then pelleted by centrifugation at 13,000 rpm for 1 minute at 4° C. The supernatant was removed, and the cell pellet was resuspended in 1 ml of TRIzol reagent. The bacterial cell suspension was transferred into a 2 ml screw-capped tube containing 0.1 mm Zirconia/silicon beads. These tubes were then vortexed for 5 minutes at the highest speed to bead beat the bacterial cells to lyse them. The tubes were placed on ice for 1 minute and then re-bead beated again on the vortex for 5 minutes. The tubes were then frozen at −20° C.
(§8) The cDNA samples from K12 raw ingredient grown on the CABCa control plates and CABCa supplemented with the various saccharides were then analysed by qPCR for the levels of gene expression of the following genes: salA, salB, salQ and ureC.
(§9) 10 μl qPCR reactions were prepared containing 2 μl of cDNA, 5 μl SYBR green master mix, 0.5 μl forward primer, 0.5 μl reverse primer and nuclease free water up to 10 μl. The dilution of cDNA in each qPCR was optimised with each primer set.
(§10) qPCR method consisted of the following cycles: Hold Stage: 2 mins at 50° C. followed by 10 mins at 95° C.; PCR Stage: 15 secs at 95° C. followed by 1 min at 60° C.; Melt Curve Stage: 15 secs at 95° C. followed by 1 min at 60° C. followed by 15 secs at 95° C.
(§11) To analyse the relative expression levels the 2^−ΔΔCt method was used to determine the relative fold gene expression level comparing the different sugars to a CABCa plate control. The reference gene used for this analysis was gyrA.

salQ = assay: as above; assay type: cell-based, S. salivarius K12
Experimental: as §5, §6, §7, §8, §9, §10, §11

ureC = assay: as above; assay type: cell-based, S. salivarius K12
Experimental: as §5, §6, §7, §8, §9, §10, §11

Row | Compound | change in L. lactis T-21 ZOI sizes (L. lactis T-21; relative to the concentration of galactose) | change of TW2 ZOI size (M. catarrhalis TW2; 2.0% galactose (w/v)) [mm] | change in M76 ZOI size (S. pyogenes M76; between 1.5% and 2.0% galactose) [mm] | increase in gene expression of salA relative to no sugar control (salA; 0.5% w/w sugar in CABCa agar) [fold] | salQ upregulated relative to a no sugar control (salQ; 0.5% w/w sugar in CABCa agar) [fold] | upregulation in urease (ureC) expression (ureC; 0.5% w/w sugar in CABCa agar) [fold] | change in L. lactis ZOI size (L. lactis T-21; 0.1% raffinose (w/v)) [mm] | change in L. lactis ZOI size (L. lactis T-21; 1.0% raffinose (w/v)) [mm] | change in ZOI size M. catarrhalis TW2 (M. catarrhalis TW2; 2.0% (w/v) raffinose) [mm] | change in ZOI size for S. pyogenes M76 (S. pyogenes M76; 1.5% raffinose (w/v), peak) [mm] | increase in gene expression of salA relative to no sugar control (salA; 2.5% w/w sugar in CABCa agar) [fold] | salQ upregulated relative to a no sugar control (salQ; 2.5% w/w sugar in CABCa agar) [fold] | upregulation in urease (ureC) expression (ureC; 2.5% w/w sugar in CABCa agar) [fold]
1 | O=C[C@H](O)[C@@H](O)[C@@H](O)[C@H](O)CO [Galactose, D-galactose] | trend upwards | 11 | 11 | ~12000 | 205 | 224 |  |  |  |  |  |  | 
2 | OC[C@H]1O[C@H](OC[C@H]2O[C@H](O[C@]3(CO)O[C@H](CO)[C@@H](O)[C@@H]3O)[C@H](O)[C@@H](O)[C@@H]2O)[C@H](O)[C@@H](O)[C@H]1O [Raffinose, D-(+) Raffinose pentahydrate] |  |  |  |  |  |  | 15 | 16 | 13 | 13 | ~5000 | 93 | 234
